Assay results reported in article PMC6222329 (Molecules : A Journal of Synthetic Chemistry and Natural …, 2018).

Key:
Format in all cases: biochemical
[1] = molecular target: T1, AChE (Electrophorus electricus) (Electrophorus electricus, UniProt O42275); test: AChE inhibition, Ellman's method
T1 construct: purchased Sigma-Aldrich (Steinheim, Germany)
Method: (§1) The assay was performed in two steps.
(§2) All enzymes were obtained from Sigma-Aldrich (Steinheim, Germany). Ellman’s reagent and the substrates were obtained from Fluka (Buchs, Switzerland). The chemicals used to prepare the buffer solution were purchased from Merck (Darmstadt, Germany).
(§3) The enzyme inhibitory activities of the synthesized compounds were investigated by applying Ellman’s method. Enzyme solutions were dissolved in gelatin solution (1%; 2.5 units/mL). […] Then, the reaction was initiated by the addition of Ellman’s reagent 5,5′-Dithiobis(2-nitrobenzoic acid) (DTNB; 20 µL/well, 10 mM) and the substrate (10 µL/well, 75 mM). […] The enzyme solution was processed as a control. All readings were adjusted with blank-reading. All assays were performed in four independent wells. […] Absorbance differences between the two readings were taken, and percentage inhibition rates were calculated according to the following formula: % Inhibition=[(A(C)−A(B))−(A(I)−A(B))]/(A(C)−A(B))×100.
(§4) • Blank (B): the well in which the inhibitor compound and substrate were not added; • Control (C): the well where the inhibitor compound was not added; • A(B): the difference in absorbance reading for the blank; • A(C): the difference in absorbance reading for the control; • A(I): the difference in absorbance reading for the inhibitor compounds.

[2] = molecular target: T2, AChE (Human) (Homo sapiens, UniProt P22303); test: AChE inhibition, Ellman's method
T2 construct: purchased Sigma-Aldrich (Steinheim, Germany)
Method: as §1, §2, §3, §4

[3] = molecular target: T3, BChE (Human) (Homo sapiens, UniProt P06276); test: BChE inhibition, Ellman's method
T3 construct: purchased Sigma-Aldrich (Steinheim, Germany)
Method: as §1, §2, §3, §4

[4] = molecular target: T4, BChE (Equine) (Equus caballus, UniProt P81908); test: biochemical
T4 construct: purchased Sigma-Aldrich (Steinheim, Germany)
Method: as §1, §2, §3, §4

[5] = read-out: AChE (Electrophorus electricus) inhibitory activity (%) ± SD
[6] = read-out: AChE (Human) inhibitory activity (%) ± SD
[7] = read-out: BChE (Human) inhibitory activity (%) ± SD

T3 sequence (P06276 29-602): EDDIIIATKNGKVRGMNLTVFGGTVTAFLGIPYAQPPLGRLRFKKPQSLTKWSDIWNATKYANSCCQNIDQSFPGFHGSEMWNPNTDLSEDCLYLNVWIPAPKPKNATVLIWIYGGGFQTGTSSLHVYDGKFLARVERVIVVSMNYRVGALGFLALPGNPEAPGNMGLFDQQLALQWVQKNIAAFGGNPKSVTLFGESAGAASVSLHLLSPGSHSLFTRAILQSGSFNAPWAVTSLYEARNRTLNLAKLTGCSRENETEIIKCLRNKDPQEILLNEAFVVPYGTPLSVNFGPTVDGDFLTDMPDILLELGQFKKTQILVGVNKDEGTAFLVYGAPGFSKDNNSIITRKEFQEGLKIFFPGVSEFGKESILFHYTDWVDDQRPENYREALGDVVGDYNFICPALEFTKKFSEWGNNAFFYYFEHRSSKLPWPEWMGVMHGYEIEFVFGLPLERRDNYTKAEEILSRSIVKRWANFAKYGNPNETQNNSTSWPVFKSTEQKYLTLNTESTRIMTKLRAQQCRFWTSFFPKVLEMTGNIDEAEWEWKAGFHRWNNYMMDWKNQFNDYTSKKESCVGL
T1 sequence (O42275 24-633): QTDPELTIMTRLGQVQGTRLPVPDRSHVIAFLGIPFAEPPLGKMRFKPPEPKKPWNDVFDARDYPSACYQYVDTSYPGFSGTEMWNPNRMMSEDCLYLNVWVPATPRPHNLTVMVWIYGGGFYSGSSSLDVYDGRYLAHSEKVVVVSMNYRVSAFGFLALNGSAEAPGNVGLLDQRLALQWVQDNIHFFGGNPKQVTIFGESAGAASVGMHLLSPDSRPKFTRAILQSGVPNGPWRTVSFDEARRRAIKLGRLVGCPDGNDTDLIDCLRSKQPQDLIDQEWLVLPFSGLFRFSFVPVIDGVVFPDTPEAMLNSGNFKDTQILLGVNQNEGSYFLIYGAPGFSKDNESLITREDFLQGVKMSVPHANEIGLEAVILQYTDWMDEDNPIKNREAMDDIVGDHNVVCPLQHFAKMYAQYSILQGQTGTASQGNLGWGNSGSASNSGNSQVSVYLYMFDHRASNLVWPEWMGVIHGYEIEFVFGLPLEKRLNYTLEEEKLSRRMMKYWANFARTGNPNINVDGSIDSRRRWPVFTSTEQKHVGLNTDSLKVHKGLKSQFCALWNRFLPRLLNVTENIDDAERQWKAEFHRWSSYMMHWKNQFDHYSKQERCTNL
T2 sequence (P22303 32-614): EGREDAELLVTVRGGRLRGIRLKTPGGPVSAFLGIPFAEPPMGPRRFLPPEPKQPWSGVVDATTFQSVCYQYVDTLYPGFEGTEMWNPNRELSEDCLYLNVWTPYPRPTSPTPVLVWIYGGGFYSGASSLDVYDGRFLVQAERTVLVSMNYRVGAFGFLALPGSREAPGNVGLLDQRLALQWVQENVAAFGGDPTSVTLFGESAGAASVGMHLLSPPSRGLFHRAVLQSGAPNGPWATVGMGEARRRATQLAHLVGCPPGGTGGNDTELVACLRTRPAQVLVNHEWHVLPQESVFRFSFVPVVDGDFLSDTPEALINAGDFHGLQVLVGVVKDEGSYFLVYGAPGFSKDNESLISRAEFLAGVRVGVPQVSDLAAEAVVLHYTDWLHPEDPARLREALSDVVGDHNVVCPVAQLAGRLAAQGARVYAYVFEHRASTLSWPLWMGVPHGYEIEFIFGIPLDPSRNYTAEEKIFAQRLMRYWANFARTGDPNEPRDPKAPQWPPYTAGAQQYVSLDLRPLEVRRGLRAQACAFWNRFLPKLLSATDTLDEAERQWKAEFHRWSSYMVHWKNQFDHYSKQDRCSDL
T4 sequence (P81908 whole entry): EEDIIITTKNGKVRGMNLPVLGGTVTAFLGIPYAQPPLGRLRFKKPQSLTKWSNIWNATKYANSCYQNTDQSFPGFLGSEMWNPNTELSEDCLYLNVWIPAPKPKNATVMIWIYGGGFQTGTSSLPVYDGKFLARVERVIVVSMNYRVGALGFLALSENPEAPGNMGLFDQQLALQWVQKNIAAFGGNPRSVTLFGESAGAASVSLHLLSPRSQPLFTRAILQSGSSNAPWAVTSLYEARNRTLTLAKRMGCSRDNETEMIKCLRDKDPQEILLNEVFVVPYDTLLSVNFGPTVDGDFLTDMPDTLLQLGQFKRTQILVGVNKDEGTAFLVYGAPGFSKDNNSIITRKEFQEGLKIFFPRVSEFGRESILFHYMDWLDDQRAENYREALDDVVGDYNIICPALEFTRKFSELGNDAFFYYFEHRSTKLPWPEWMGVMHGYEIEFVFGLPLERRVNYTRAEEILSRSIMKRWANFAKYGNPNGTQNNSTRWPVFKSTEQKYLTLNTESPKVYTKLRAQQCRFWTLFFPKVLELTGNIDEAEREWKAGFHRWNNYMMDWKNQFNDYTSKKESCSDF

## Nc1c2ccccc2nc2ccccc12 [Aminoacridine, 9-aminoacridine, reference compound]
[1]; [5]
  inhibition at 0.001 µM: 16 ± 0.48%
  inhibition at 0.01 µM: 20.4 ± 0.55%
  inhibition at 0.1 µM: 31.6 ± 0.82%
  inhibition at 1 µM: 41.7 ± 0.97%
  inhibition at 10 µM: 59 ± 1.05%
  inhibition at 100 µM: 75.2 ± 1.15%
  inhibition at 1000 µM: 85.2 ± 1.08%
[2]; [6]
  inhibition at 0.001 µM: 16.7 ± 0.37%
  inhibition at 0.01 µM: 21.6 ± 0.42%
  inhibition at 0.1 µM: 35.8 ± 0.67%
  inhibition at 1 µM: 44.3 ± 0.74%
  inhibition at 10 µM: 55.3 ± 0.82%
  inhibition at 100 µM: 78.2 ± 0.89%
  inhibition at 1000 µM: 87.2 ± 0.97%
[3]
  IC50: 221 ± 7 nM
[3]; [7]
  inhibition at 0.001 µM: 22.7 ± 0.48%
  inhibition at 0.01 µM: 31.9 ± 0.62%
  inhibition at 0.1 µM: 46.8 ± 0.7%
  inhibition at 1 µM: 53.3 ± 0.99%
  inhibition at 10 µM: 74.3 ± 1.08%
  inhibition at 100 µM: 86.1 ± 1.22%
  inhibition at 1000 µM: 90.4 ± 1.04%
[4]
  IC50: 233 ± 9 nM
[4]; 10^-3 M, read-out: BChE (Equine) inhibitory activity (%) ± SD
  inhibition at 1000 µM: 91.2 ± 1.2%
[4]; 10^-4 M, read-out: BChE (Equine) inhibitory activity (%) ± SD
  inhibition at 100 µM: 87.3 ± 1.07%
[4]; 10^-5 M, read-out: BChE (Equine) inhibitory activity (%) ± SD
  inhibition at 10 µM: 71.5 ± 1.02%
[4]; 10^-6 M, read-out: BChE (Equine) inhibitory activity (%) ± SD
  inhibition at 1 µM: 56.3 ± 0.97%
[4]; 10^-7 M, read-out: BChE (Equine) inhibitory activity (%) ± SD
  inhibition at 0.1 µM: 42.8 ± 0.63%
[4]; 10^-8 M, read-out: BChE (Equine) inhibitory activity (%) ± SD
  inhibition at 0.01 µM: 30.1 ± 0.48%
[4]; 10^-9 M, read-out: BChE (Equine) inhibitory activity (%) ± SD
  inhibition at 0.001 µM: 24.9 ± 0.5%

## CCN1CCN(C(=S)SCC(=O)Nc2c3ccccc3nc3ccccc23)CC1 [Compound 4c, 2-(9-Acridinylamino)-2-oxoethyl 4-ethylpiperazine-1-carbodithioate]
[1]; 10^-3 M
  AChE (Electrophorus electricus) inhibitory activity (%) ± SD: 50.73±2.21%
[1]; 10^-4 M
  AChE (Electrophorus electricus) inhibitory activity (%) ± SD: 5.11 ± 0.09%
[2]; 10^-3 M
  AChE (Human) inhibitory activity (%) ± SD: 51.25±1.45%
[2]; 10^-4 M
  AChE (Human) inhibitory activity (%) ± SD: 10.28 ± 0.22%
[3]; 10^-3 M
  BChE (Human) inhibitory activity (%) ± SD: 50.23±0.88%
[3]; 10^-4 M
  BChE (Human) inhibitory activity (%) ± SD: 20.55 ± 0.61%
[4]; 10^-3 M
  BChE (Equine) inhibitory activity (%) ± SD: 45.18±0.94%
[4]; 10^-4 M
  BChE (Equine) inhibitory activity (%) ± SD: 22.70 ± 0.70%

## O=C(CSC(=S)N1CCN(c2ccc([N+](=O)[O-])cc2)CC1)Nc1c2ccccc2nc2ccccc12 [Compound 4d, 2-(9-Acridinylamino)-2-oxoethyl 4-(4-nitrophenyl)piperazine-1-carbodithioate]
[1]; 10^-3 M
  AChE (Electrophorus electricus) inhibitory activity (%) ± SD: 55.62±1.14%
[1]; 10^-4 M
  AChE (Electrophorus electricus) inhibitory activity (%) ± SD: 31.64 ± 0.45%
[2]; 10^-3 M
  AChE (Human) inhibitory activity (%) ± SD: 50.46±1.09%
[2]; 10^-4 M
  AChE (Human) inhibitory activity (%) ± SD: 34.71 ± 0.77%
[3]; 10^-3 M
  BChE (Human) inhibitory activity (%) ± SD: 80.56±1.51%
[3]; 10^-4 M
  BChE (Human) inhibitory activity (%) ± SD: 45.26 ± 0.60%
[4]; 10^-3 M
  BChE (Equine) inhibitory activity (%) ± SD: 77.75±1.79%
[4]; 10^-4 M
  BChE (Equine) inhibitory activity (%) ± SD: 40.19 ± 0.49%

## O=C(CSC(=S)N1CCN(c2ccccc2)CC1)Nc1c2ccccc2nc2ccccc12 [Compound 4f, 2-(9-Acridinylamino)-2-oxoethyl 4-phenylpiperazine-1-carbodithioate]
[1]; 10^-3 M
  AChE (Electrophorus electricus) inhibitory activity (%) ± SD: 77.65±2.42%
[1]; 10^-4 M
  AChE (Electrophorus electricus) inhibitory activity (%) ± SD: 4.70 ± 0.27%
[2]; 10^-3 M
  AChE (Human) inhibitory activity (%) ± SD: 74.28±1.04%
[2]; 10^-4 M
  AChE (Human) inhibitory activity (%) ± SD: 8.71 ± 0.62%
[3]; 10^-3 M
  BChE (Human) inhibitory activity (%) ± SD: 75.23±1.25%
[3]; 10^-4 M
  BChE (Human) inhibitory activity (%) ± SD: 15.67 ± 0.79%
[4]; 10^-3 M
  BChE (Equine) inhibitory activity (%) ± SD: 77.60±1.60%
[4]; 10^-4 M
  BChE (Equine) inhibitory activity (%) ± SD: 12.80 ± 0.87%

## CN1CCN(C(=S)SCC(=O)Nc2c3ccccc3nc3ccccc23)CC1 [Compound 4g, 2-(9-Acridinylamino)-2-oxoethyl 4-methylpiperazine-1-carbodithioate]
[1]; 10^-3 M
  AChE (Electrophorus electricus) inhibitory activity (%) ± SD: 26.90±0.83%
[1]; 10^-4 M
  AChE (Electrophorus electricus) inhibitory activity (%) ± SD: 10.44 ± 0.66%
[2]; 10^-3 M
  AChE (Human) inhibitory activity (%) ± SD: 30.85±0.65%
[2]; 10^-4 M
  AChE (Human) inhibitory activity (%) ± SD: 11.30 ± 0.58%
[3]; 10^-3 M
  BChE (Human) inhibitory activity (%) ± SD: 80.29±2.40%
[3]; 10^-4 M
  BChE (Human) inhibitory activity (%) ± SD: 35.97 ± 0.80%
[4]; 10^-3 M
  BChE (Equine) inhibitory activity (%) ± SD: 78.11±2.24%
[4]; 10^-4 M
  BChE (Equine) inhibitory activity (%) ± SD: 33.65 ± 0.89%

## COc1ccc(N2CCN(C(=S)SCC(=O)Nc3c4ccccc4nc4ccccc34)CC2)cc1 [Compound 4h, 2-(9-Acridinylamino)-2-oxoethyl 4-(4-methoxyphenyl)piperazine-1-carbodithioate]
[1]; 10^-3 M
  AChE (Electrophorus electricus) inhibitory activity (%) ± SD: 30.87±1.01%
[1]; 10^-4 M
  AChE (Electrophorus electricus) inhibitory activity (%) ± SD: 15.23 ± 0.69%
[2]; 10^-3 M
  AChE (Human) inhibitory activity (%) ± SD: 35.77±1.62%
[2]; 10^-4 M
  AChE (Human) inhibitory activity (%) ± SD: 18.39 ± 0.57%
[3]; 10^-3 M
  BChE (Human) inhibitory activity (%) ± SD: 80.88±2.05%
[3]; 10^-4 M
  BChE (Human) inhibitory activity (%) ± SD: 15.58 ± 0.67%
[4]; 10^-3 M
  BChE (Equine) inhibitory activity (%) ± SD: 84.02±2.35%
[4]; 10^-4 M
  BChE (Equine) inhibitory activity (%) ± SD: 12.64 ± 0.46%
